For 13 compounds, IC50 results are on record in patent US9422292B2, “Bromodomain inhibitors and uses thereof” (Constellation Pharmaceuticals, Inc., priority 2011, dated 2016).

Assay [1] relates to MYC mRNA in MV4:11 (AML) cells. Nature of the assay: cMyc RNA quantification assay (QuantiGene) in MV4:11 cells. The format is cell-based. The following applies: Homo sapiens, 4 h, QuantiGene 2.0. Summed up:
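Cells exposed to a range of compound concentrations for 4 h, then MYC mRNA quantified by QuantiGene 2.0 branched-DNA assay. Biological duplicates averaged and normalized to DMSO vehicle, expressed as percent MYC mRNA.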

Assay [2] concerns the target T1, BRD4 (BD1) (Homo sapiens, UniProt O60885).
T1 construct: His; made in house
Nature of the assay: BRD4 AlphaLisa binding assay. The following applies: BRD4 (BD1) 30 nM, biotinylated H4-tetraacetyl peptide 200 nM; read-out: BRD4 AlphaLisa. In a few lines:
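BRD4 (BD1) (30 nM final) with peptide (200 nM final) in 40 mM HEPES pH 7.0, 40 mM NaCl, 1 mM DTT, 0.01% BSA, 0.008% Brij-35, 1.2% DMSO, 20 min at RT with compound.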

Assay [3] has as its system IL-6 secretion in THP-1 cells. Put plainly: Cell-based IL-6 quantification assay (ELISA, Mesoscale) in LPS-treated THP-1 cells. As to conditions: Homo sapiens, LPS 4 μg/mL, 16 h, ELISA value/CellTiter-Glo ratio. Summed up:
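THP-1 cells (100,000/well, RPMI-10% FBS) stimulated with 4 μg/mL LPS and incubated 16 h with compound at various concentrations. Supernatant IL-6 measured by Mesoscale ELISA, normalized to CellTiter-Glo cell content; % inhibition of secretion from the ratio.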

A value given as a limit tells only on which side of the number the result lay.

As to `Cc1nnc2n1-c1ccc(S(C)(=O)=O)cc1N(c1ccc(Cl)cc1)C[C@H]2C` [Compound 60, 4H-[1,2,4]Triazolo[4,3-a][1,5]benzodiazepine,5,6-dihydro-(4R)-1,4-dimethyl-8-methylsulfonyl-6-(4-chloro-phenyl)], the IC50 in assay [1] lay in the range of 1000 to 10000 nM; in assay [2] it was 100 to 1000 nM; in assay [3], 100 to 1000 nM.

`Cc1nnc2n1-c1ccc(-c3ccc(N)nc3)cc1N(c1ccc(C(N)=O)cc1)CC2C` (stereo in doubt) [Compound 70, (S)-4-(8-(6-aminopyridin-3-yl)-1,4-dimethyl-4H-benzo[b][1,2,4]triazolo[4,3-d][1,4]diazepin-6(5H)-yl)benzamide]: the values for the IC50 in assay [1], in assay [2] and in assay [3] were 1000 to 10000 nM, < 100 nM and 1000 to 10000 nM, respectively.

In the case of `Cc1nnc2n1-c1ccc(C(=O)N3CCCC3)cc1N(c1ccc(Cl)cc1)C[C@H]2C` [Compound 53, 4-R-4H-[1,2,4]triazolo[4,3-a][1,5]benzodiazepine,5,6-dihydro-1,4-dimethyl-8-(pyrrolidine-1-carbonyl)-6-(4-chloro-phenyl)], the IC50 in assay [1] lay in the range of 1000 to 10000 nM; in assay [2], 100 to 1000 nM; in assay [3], 100 to 1000 nM.

As to `Cc1nnc2n1-c1ccc(Br)cc1N(c1ccc(Cl)cc1)C[C@@H]2C` [Compound 37, (S)-4H-[1,2,4]triazolo[4,3-a][1,5]benzodiazepine, 5,6-dihydro-1,4-dimethyl-8-bromo-6-(4-chloro-phenyl)], the IC50 was 1000 to 10000 nM in assay [1], 1000 to 10000 nM in assay [2] and > 1000 nM in assay [3].

As for `Cc1nnc2n1-c1ccc(-c3cnc(N)cn3)cc1N(c1ccc(Cl)cn1)C[C@H]2C` [Compound 83, (R)-5-(6-(5-chloropyridin-2-yl)-1,4-dimethyl-5,6-dihydro-4H-benzo[b][1,2,4]triazolo[4,3-d][1,4]diazepin-8-yl)pyrazin-2-amine], the IC50 in assay [1], in assay [2] and in assay [3] was < 100 nM throughout.

Turning to `Cc1nnc2n1-c1ccc(-c3ccc(N)nc3)cc1N(c1ccc(Cl)cc1)C[C@H]2C` [Compound 26, (R)-4H-[1,2,4]triazolo[4,3-a][1,5]benzodiazepine, 5,6-dihydro-1,4-dimethyl-8-(6-aminopyridin-3-yl)-6-(4-chloro-phenyl)], the IC50 in assay [1], in assay [2] and in assay [3] was < 100 nM each time.

For the compound `Cc1nc(-c2ccc3c(c2)N(c2ccc(Cl)cc2)C[C@@H](C)c2nnc(C)n2-3)no1` [Compound 50, 4-R-4H-[1,2,4]triazolo[4,3-a][1,5]benzodiazepine, 5,6-dihydro-1,4-dimethyl-8-(5-methyl-1,2,4-oxadiazol-3-yl)-6-(4-chloro-phenyl)], the IC50 in assay [1] was < 100 nM; in assay [2], 100 to 1000 nM; in assay [3], < 100 nM.

Regarding `Cc1nnc2n1-c1ccc(-c3cnn(CC(N)=O)c3)cc1N(c1ccc(C#N)cc1)C[C@H]2C` [Compound 81, (R)-2-(4-(6-(4-cyanophenyl)-1,4-dimethyl-5,6-dihydro-4H-benzo[b][1,2,4]triazolo[4,3-d][1,4]diazepin-8-yl)-1H-pyrazol-1-yl)acetamide], the IC50 in assay [1] was 1000 to 10000 nM; in assay [2] it was < 100 nM; in assay [3] it was > 1000 nM.

For the compound `Cc1[nH]c(=O)ccc1-c1ccc2c(c1)N(c1ccc(Cl)cc1)C[C@@H](C)c1nnc(C)n1-2` [Compound 85, (R)-5-(6-(4-chlorophenyl)-1,4-dimethyl-5,6-dihydro-4H-benzo[b][1,2,4]triazolo[4,3-d][1,4]diazepin-8-yl)-6-methylpyridin-2(1H)-one], the IC50 was 100 to 1000 nM in assay [1], 100 to 1000 nM in assay [2] and > 1000 nM in assay [3].

With `Cc1nnc2n1-c1ccccc1N(c1ccc(Cl)cc1)C(C)C2` (stereo not drawn) [Compound 18, 6-(4-chlorophenyl)-1,5-dimethyl-5,6-dihydro-4H-benzo[b][1,2,4]triazolo[4,3-d][1,4]diazepine], the IC50 in assay [1] was 1000 to 10000 nM; in assay [2], 100 to 1000 nM; in assay [3], > 1000 nM.

`Cc1nnc2n1-c1ccc(-c3cnn(C)n3)cc1N(c1ccc(S(C)(=O)=O)cc1)C[C@H]2C` [Compound 73, (S)-4H-[1,2,4]Triazolo[4,3-a][1,5]benzodiazepine, 5,6-dihydro-1,4-dimethyl-8-(2-methyl-2H-1,2,3-triazole-4-yl)-6-(4-methylsulfonyl-phenyl)]: the IC50 was 100 to 1000 nM in assay [1], < 100 nM in assay [2] and 100 to 1000 nM in assay [3].

Take `Cc1nnc2n1-c1ccc(-c3ccc(N)nc3)cc1N(c1ccc(Cl)cc1)CC2` [Compound 15, 5-(6-(4-chlorophenyl)-1-methyl-5,6-dihydro-4H-benzo[b][1,2,4]triazolo[4,3-d][1,4]diazepin-8-yl)pyridin-2-amine]: the IC50 in assay [1] was 100 to 1000 nM; in assay [2] it was < 100 nM; in assay [3] it was < 100 nM.

For the compound `Cc1nnc2n1-c1ccc(-c3ccc(C(=O)O)cc3)cc1N(c1ccc(Cl)cc1)CC2` [Compound 20, 4H-[1,2,4]triazolo[4,3-a][1,5]benzodiazepine,5,6-dihydro-1-methyl-8-(4-carboxy-phenyl)-6-(4-chloro-phenyl)], the IC50 is 100 to 1000 nM in assay [1], < 100 nM in assay [2] and 100 to 1000 nM in assay [3].
